From patent US20180116972A1, “Lipid based nanocarrier compositions loaded with metal nanoparticles and therapeutic agent” (UNIVERSITE DE BORDEAUX, priority 2015, published 2018)
“Also recorded” adds a separate entry of the source.

Experiments:
[1] = Stability of a suspension of iron oxide nanoparticles clusters encapsulated by a lipid (DOPC) versus a nucleolipid (DOTAU); conditions: Milli-Q water, sonicated 3×15 minutes
Protocol: 75 μL of stock solution of (DOPC) (Avanti Polar ipids, 50 mg/mL in chloroform) and 20 μL of stock solution of iron oxide nanoparticles (10 mg/mL in chloroform) were mixed. The organic phase was added dropwise into the aqueous phase (2 ml of Milli-Q Water) placed in glass tube under stirring by vortex. Then the mixture was placed in a glass flask. Chloroform was removed under vacuum and the resulting crude material solution was sonicated 3 times (3×15 minutes) to give a precipitate.
The same protocol was followed, except that the nucleolipid N-[5′-(2′,3′-dioleoyl)uridine]-N′,N′,N′-trimethylammonium (DOTAU) was used instead of DOPC.

[2] = tested on: Platelet rich plasma (PRP); test: In vitro platelet aggregation (light transmission aggregometer); assay type: cell-based, healthy volunteers; conditions: 37° C.
Protocol: Blood was obtained in 1/10th volume of 3.8% sodium citrate from healthy volunteers who had not taken any drugs known to affect platelet function for 2 weeks prior to the study. Platelet rich plasma (PRP) was prepared by centrifugation at 20° C. for 10-15 min at 150-200 g and stored at room temperature.
Platelet-poor plasma (PPP) was prepared by further centrifugation of the remaining plasma at 2700 g for 15 min and was used to calibrate the 100% light transmission of the aggregometer.
The percentage of aggregation was followed versus time. PRP (207 μL) was stirred in cuvette at 37° C. and agonists adenosine 5′-diphosphate (ADP) or thrombin receptor-activating peptide -6 (TRAP-6) were added at 5 s to promote platelet aggregation, and was incubated either with the DOU-PEG2000-based nanocarrier composition containing iron oxide nanoparticles and prostacyclin (PGI2) of example 2, or with the iron oxide nanoparticles clusters encapsulated by diC16dT of preparation 2 (used as negative control) or with the agonist(s) only (negative control) or with the agonist(s) and PGI2 (positive control) for 15 min and 3 h for evaluating PGI2 activity. The in vitro platelet aggregation was determined using a four-channel light transmission aggregometer (APACT 4004, ELITech, France).
The results are shown on FIG. 12, where the curves numbered 1 to 7 represent the following experimental conditions: […]

[3] = Size distribution measured by Dynamic Light Scattering (DLS); assay type: physicochemical

For `CCCCCCCC/C=C\CCCCCCCC(=O)O[C@@H]1[C@H](OC(=O)CCCCCCC/C=C\CCCCCCCC)[C@@H](C[N+](C)(C)C)O[C@H]1n1ccc(=O)[nH]c1=O` [DOTAU, N-[5′-(2′,3′-dioleoyl)uridine]-N′,N′,N′-trimethylammonium], the “colloidal stability of the iron oxide nanoparticle suspension after sonication” value [1] was “did not give a precipitate; also recorded: stable colloïdal suspension”.
With `CCCCC[C@H](O)/C=C/[C@@H]1[C@H]2C/C(=C/CCCC(=O)O)O[C@H]2C[C@H]1O` [PGI2, prostacyclin] the “platelet aggregation induced by ADP” value ([2]; agonist ADP, 15 min incubation) was “totally inhibit” and the “platelet aggregation induced by TRAP-6” value ([2]; agonist TRAP-6, 3 h incubation) was “totally inhibit”.
In the case of “APOA1: Apolipoprotein-A1 (Sigma Aldrich)”, the “size distribution by number measured by DLS (d)” value [3] is reported as 5.01 nm.
